Laboratory results reported in US7326422B2, “Dissolvable oxides for biological applications” (DelSiTech Oy, priority 1996, dated 2008).
Where a name gives a salt, the structure may show the parent alone. One block for each compound: values may come before it.

Columns and labels:
[1] = during the first day; crushed silica xerogel particles of 500-700 μm; cited from earlier work
[2] = In vitro dissolution test, USP XXII dissolution apparatus II (paddle method), SBF pH 7.4 with 0.5% sodium dodecyl sulphate, 37° C.; assay type: physicochemical; details: for Dissolution of toremifene citrate: b: silica xerogel with PEG 4,600; for Release of toremifene citrate: SLOPE: silica xerogel; for release of toremifene citrate: linear, zero-order
Description: Simulated body fluid (SBF, pH 7.4) containing 0.5% […] sodium dodecyl sulphate was used as dissolution medium. SBF was prepared by dissolving reagent grade NaCl (136.8 mM), NaHCO3 (4.2 mM), KCl (3.0 mM), K2HPO4×3H2O (1.0 mM), MgCl2×6H2O (1.5 mM), CaCl2×2H2O […] and Na2SO4 (0.5 mM) in distilled water. They were buffered at pH 7.4 with tris-(hydroxymethyl)aminomethane (50 mM) and hydrochloric acid.
The volume of dissolution medium was 250 ml. Agitation intensity was 50 rpm and temperature was 37° C. […]

[3] = Dissolution of spray dried or crushed gel particles in 250 ml SBF, USP XXII dissolution apparatus II (paddle method); assay type: physicochemical; details: for toremifene citrate released: after 30 hours; for slope (%/h^1/2): microspheres with 11 w-% toremifene citrate
Description: The solution for spray drying purpose was prepared with a mole ratio of TEOS:H2O:HCl=1.0:14.2:0.003. […] Before spray drying the pH of the sol was adjusted to pH 2.1 with hydrochloric acid. Silica sol was spray dried immediately or after 65 hours aging at room temperature. The spray drying conditions were as described in Example 6. […] About 42 mg of gel particles were placed in 250 ml of simulated body fluid (SBF) at 37° C. and pH 7.4.

Compound: CN[C@H](CC(C)C)C(=O)N[C@H]1C(=O)N[C@@H](CC(N)=O)C(=O)N[C@H]2C(=O)N[C@H]3C(=O)N[C@H](C(=O)N[C@H](C(=O)O)c4cc(O)cc(O)c4-c4cc3ccc4O)[C@H](O)c3ccc(c(Cl)c3)Oc3cc2cc(c3O[C@@H]2O[C@H](CO)[C@@H](O)[C@H](O)[C@H]2O[C@H]2C[C@](C)(N)[C@H](O)[C@H](C)O2)Oc2ccc(cc2Cl)[C@H]1O [vancomycin]
incorporated vancomycin released [1]: about 90%

release faster from 28 days aged silica xerogels than from unaged ([2]; silica xerogel monolith with PEG 4,600): about 30% | Dissolution of toremifene citrate: b ([2]; aging 0 days, dried at 11.4 RH-%): b = 0.46%/mg %/mg implant/h^1/2 | Dissolution of toremifene citrate: b ([2]; aging 0 days, dried at 48.4 RH-%): b = 0.53 %/mg implant/h^1/2 | Dissolution of toremifene citrate: b ([2]; aging 0 days, dried at 74.7 RH-%): b = 0.46 %/mg implant/h^1/2 | Dissolution of toremifene citrate: b ([2]; aging 7 days, dried at 11.4 RH-%): b = 0.59 %/mg implant/h^1/2 | Dissolution of toremifene citrate: b ([2]; aging 7 days, dried at 48.4 RH-%): b = 0.52 %/mg implant/h^1/2 | Dissolution of toremifene citrate: b ([2]; aging 7 days, dried at 74.7 RH-%): b = 0.06%/mg %/mg implant/h | Dissolution of toremifene citrate: b ([2]; aging 28 days, dried at 11.4 RH-%): b = 0.67 %/mg implant/h^1/2 | Dissolution of toremifene citrate: b ([2]; aging 28 days, dried at 48.4 RH-%): b = 0.74 %/mg implant/h^1/2 | Release of toremifene citrate: SLOPE ([2]; H2O/TEOS = 6:1, PEG 4600): 0.094%/ %/mg × h | Release of toremifene citrate: SLOPE ([2]; H2O/TEOS = 6:1, PEG 10000): 0.922%/mg %/mg IMPLANT × h^1/2 | Release of toremifene citrate: SLOPE ([2]; H2O/TEOS = 6:1, without PEG): 0.657%/mg %/mg IMPLANT × h^1/2 | Release of toremifene citrate: SLOPE ([2]; H2O/TEOS = 14:1, PEG 4600): 0.052 %/mg IMPLANT × h | Release of toremifene citrate: SLOPE ([2]; H2O/TEOS = 14:1, PEG 10000): 0.061 %/mg IMPLANT × h | Release of toremifene citrate: SLOPE ([2]; H2O/TEOS = 14:1, without PEG): 0.085 %/mg IMPLANT × h | release rate (linear) ([2]; silica xerogels containing PEG 10 000): 0.1 %/mg implant/h | release rate (linear) ([2]; silica xerogels containing PEG 4600): 0.13 %/mg implant/h | release rate (linear) ([2]; silica-xerogels without polyethylene glycol): 0.16 %/mg implant/h | release of toremifene citrate ([2]; sintered silica gel (120° C.) containing 11.5 wt-% drug): 0.05 %/mg implant/h | release of toremifene citrate ([2]; sintered silica gel (120° C.) containing 34.4 wt-% drug): 0.11 %/mg implant/h | release rate (linear) ([2]; spray dried particles (60-200 μm) containing 10.2 w-% toremifene citrate, two months from preparation): 0.68 w-% per hour | toremifene citrate released ([3]; microspheres (<50 μm) spray dried at pH 3.8, square root of time kinetics): 80 w-% | toremifene citrate released ([3]; microspheres from sol aged 65 hours, pH 2): 63.1 w-% | toremifene citrate released ([3]; microspheres from unaged sol, pH 2): 75.2 w-% | dissolution rate (square root of time kinetics) ([3]; crushed silica xerogel granules about 4-50 μm, PEG 4.600): 8.1 %/h^1/2 | cum released toremifene (%) after 30 h ([3]; microspheres aged for 0 h (pH 2)): 75.2% | cum released toremifene (%) after 30 h ([3]; microspheres aged for 65 h (pH 2)): 63.1% | slope (%/h^1/2) ([3]; aged for 0 h (pH 2)): 12.2 %/h^1/2 | slope (%/h^1/2) ([3]; aged for 65 h (pH 2)): 9.79 %/h^1/2 | release slower from aged than from unaged microspheres ([3]; sol aged 65 h vs 0 h, pH 2): about 20%
Compound: CN(C)CCOc1ccc(/C(=C(/CCCl)c2ccccc2)c2ccccc2)cc1 [toremifene citrate]
